Assay results taken from the supplement of paper PMC12370961.

Key:
Test in all cases: differential drug sensitivity score (dDSS) relative to sarcoma reference cohort mean DSS (DSS units (0-100 scale difference)); higher = more selective sensitivity than reference sarcomas
Details in all cases: exposure time: 72 h; concentration range: 10-10000 nM
ES-ZH009 = tested on: ES-ZH009 (patient-derived Ewing sarcoma tumoroid)
Protocol: (§1)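 Drug response profiling of patient-derived Ewing sarcoma and CIC::DUX4 sarcoma tumoroid models (or cells tested directly after isolation from the tumor, 'direct'). The DSS is the normalised AUC (0-100); dDSS is the sample DSS minus the mean DSS of a 34-sarcoma reference cohort profiled in the same lab.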

CDS-ZH001-2 = tested on: CDS-ZH001-2 (patient-derived CIC-DUX4 sarcoma tumoroid)
Protocol: as §1

ES-ZH007 = tested on: ES-ZH007 (patient-derived Ewing sarcoma tumoroid)
Protocol: as §1

ES-ZH004 = tested on: ES-ZH004 (patient-derived Ewing sarcoma tumoroid)
Protocol: as §1

ES-ZH008 = tested on: ES-ZH008 (patient-derived Ewing sarcoma tumoroid)
Protocol: as §1

CDS-ZH001 = tested on: CDS-ZH001 (patient-derived CIC-DUX4 sarcoma tumoroid)
Protocol: as §1

ES-ZH001 = tested on: ES-ZH001 (patient-derived Ewing sarcoma tumoroid)
Protocol: as §1

ES-ZH016 = tested on: ES-ZH016 (patient-derived Ewing sarcoma tumoroid)
Protocol: as §1

CDS-ZH002 direct = tested on: CDS-ZH002 direct (CIC-DUX4 sarcoma cells right after isolation)
Protocol: as §1

CDS-ZH002 = tested on: CDS-ZH002 (patient-derived CIC-DUX4 sarcoma tumoroid)
Protocol: as §1

ES-ZH002 = tested on: ES-ZH002 (patient-derived Ewing sarcoma tumoroid)
Protocol: as §1

CDS-ZH003 = tested on: CDS-ZH003 (patient-derived CIC-DUX4 sarcoma tumoroid)
Protocol: as §1

ES-ZH016 direct = tested on: ES-ZH016 direct (Ewing sarcoma cells right after isolation)
Protocol: as §1

Row | SMILES | differential drug sensitivity score (ES-ZH009) | differential drug sensitivity score (CDS-ZH001-2) | differential drug sensitivity score (ES-ZH007) | differential drug sensitivity score (ES-ZH004) | differential drug sensitivity score (ES-ZH008) | differential drug sensitivity score (CDS-ZH001) | differential drug sensitivity score (ES-ZH001) | differential drug sensitivity score (ES-ZH016) | differential drug sensitivity score (CDS-ZH002 direct) | differential drug sensitivity score (CDS-ZH002) | differential drug sensitivity score (ES-ZH002) | differential drug sensitivity score (CDS-ZH003) | differential drug sensitivity score (ES-ZH016 direct)
1 | CC[C@H](Nc1ncnc2[nH]cnc12)c1nc2cccc(F)c2c(=O)n1-c1ccccc1 [Idelalisib] | -1.5 | -1.3 | -1.5 | -1.5 | -1.5 | -1.4 | -1.5 | 1.5 | -1.5 | -1.4 | 1.3 | 2.9 | -1.5
2 | O=P1(NCCCl)OCCCN1CCCl (stereo not given) [Ifosfamide] | -1 | -1 | -1 | 5.5 | 1.6 | -1 | 0.6 | -1 | -1 | -1 | 5.4 | -1 | -1
3 | Cc1ccc(NC(=O)c2ccc(CN3CCN(C)CC3)cc2)cc1Nc1nccc(-c2cccnc2)n1 [Imatinib] | -3.3 | -0.8 | -1.3 | 0.7 | 0.1 | 0.4 | -2.9 | -3.3 | -1.3 | -1.5 | 3.2 | 12.4 | 1.6
4 | CCN1CCN(c2ccc(Nc3cc(N(C)C(=O)Nc4c(Cl)c(OC)cc(OC)c4Cl)ncn3)cc2)CC1 [Infigratinib] | -0.1 | -1.1 | -3.2 | -3.9 | -6.1 | -1.9 | -4 | -4 | 2.3 | -6.1 | 2 | -1.3 | 1.6
5 | CC(C)NC[C@@H](C(=O)N1CCN(c2ncnc3c2[C@H](C)C[C@H]3O)CC1)c1ccc(Cl)cc1 [Ipatasertib] | 2.4 | 2 | 1.3 | 3.9 | 6.6 | 7.6 | -3.2 | -0.5 | -3.2 | -0.8 | 10.2 | 8.9 | -3.9
6 | CCc1c2c(nc3ccc(OC(=O)N4CCC(N5CCCCC5)CC4)cc13)-c1cc3c(c(=O)n1C2)COC(=O)[C@]3(O)CC [Irinotecan] | 9.1 | -0.6 | 14.3 | 23.1 | 31.1 | 1 | 19.6 | 17.9 | -5.3 | -4 | 23.1 | -9.5 | 15.8
7 | N#Cc1ccnc(N2C(=O)CC[C@H]2C(=O)N(c2cncc(F)c2)[C@H](C(=O)NC2CC(F)(F)C2)c2ccccc2Cl)c1 [Ivosidenib] | -2.1 | -2.1 | -2.1 | -2.1 | 7.8 | -2.1 | -2.1 | -2.1 | -2.1 | -2.1 | -2.1 | -2.1 | 18.2
8 | CC(C)C[C@H](NC(=O)CNC(=O)c1cc(Cl)ccc1Cl)B(O)O [Ixazomib] | 7.6 | 3.6 | 4.9 | 3.5 | 0.7 | 9.5 | 5.2 | -2.9 | 9.9 | 1.8 | 4.9 | 3.2 | -2.2
9 | Clc1ccc(NN=C(c2ccccc2)c2ccccn2)nc1 [JIB04] | -2.6 | 0.6 | 0.7 | -4.3 | -2.5 | -4.4 | -6.1 | 1.5 | -4.8 | 1.4 | -6 | -2.7 | -0.6
10 | CCc1c(O)cc(O)c(C(=O)c2ccc(OCCN3CCOCC3)c(OC)c2)c1CC(=O)N(CCOC)CCOC [KW-2478] | 4.4 | 0.4 | 0.6 | 0 | 6.1 | -0.4 | 3.5 | 1.4 | -0.4 | -3.8 | 7.3 | -1.3 | 3.2
11 | CN[C@@H](C)C(=O)N[C@H](C(=O)N1CCC[C@H]1c1nc(C(=O)c2ccc(F)cc2)cs1)C1CCCCC1 [LCL161] | -1.3 | 4.5 | -0.2 | -0.7 | -0.8 | 11.6 | -1.3 | -1.3 | 1 | -1.3 | -1.3 | 3.3 | 0.8
12 | CS(=O)(=O)CCNCc1ccc(-c2ccc3ncnc(Nc4ccc(OCc5cccc(F)c5)c(Cl)c4)c3c2)o1 [Lapatinib] | -0.7 | -0.5 | -0.7 | -0.7 | -0.7 | -0.7 | -0.7 | -0.7 | -0.7 | -0.7 | 0.3 | -0.7 | -0.5
13 | O=C(Nc1cnn2ccc(N3CCC[C@@H]3c3cc(F)ccc3F)nc12)N1CC[C@H](O)C1 [Larotrectinib] | -0.9 | -0.9 | -0.9 | -0.8 | -0.9 | 1.2 | -0.9 | -0.9 | -0.9 | -0.9 | -0.9 | 8.8 | -0.9
14 | Nc1cccc2c1CN(C1CCC(=O)NC1=O)C2=O (stereo not given) [Lenalidomide] | -1.2 | -1.2 | -1.2 | 7.7 | 7.4 | -1.2 | 0.4 | -1.2 | -1.2 | -1.2 | 1.8 | -1.2 | -1.2
15 | COc1cc2nccc(Oc3ccc(NC(=O)NC4CC4)c(Cl)c3)c2cc1C(N)=O [Lenvatinib] | -2.4 | -2.4 | -1.2 | 0.5 | 5 | -2.4 | 3.9 | -2.4 | -2.4 | -2.4 | 5.8 | -2.4 | -2.4
16 | Cc1ccc(F)c(NC(=O)Nc2ccc(-c3cccc4[nH]nc(N)c34)cc2)c1 [Linifanib] | 2.3 | -0.9 | -1.4 | -1.3 | -0.4 | 0.8 | 3.8 | 0.1 | 1.4 | -1.4 | 2.4 | 0.8 | 0.7
17 | C[C@]1(O)C[C@@H](c2nc(-c3ccc4ccc(-c5ccccc5)nc4c3)c3c(N)nccn32)C1 [Linsitinib] | 3.7 | 5.7 | 3 | 3.2 | 4.9 | 3.8 | 0.8 | 6.8 | -5.9 | -5 | 15.2 | 5.7 | 3.2
18 | C[C@H]1Oc2cc(cnc2N)-c2c(nn(C)c2C#N)CN(C)C(=O)c2ccc(F)cc21 [Lorlatinib] | -2.4 | 6.9 | -0.9 | -4.3 | -3.5 | 11.6 | -1.4 | 1.2 | 4.2 | -1.4 | 5.9 | 1.5 | -1.1
19 | CCNC(=O)c1noc(-c2cc(C(C)C)c(O)cc2O)c1-c1ccc(CN2CCOCC2)cc1 [Luminespib] | 6.6 | 2.1 | 3.7 | 1.2 | 7.8 | 4.1 | 3.5 | 2.2 | -3.8 | -9.4 | 10.5 | 2.7 | 8.1
20 | NC1(c2ccc(-c3nc4ccn5c(=O)[nH]nc5c4cc3-c3ccccc3)cc2)CCC1 [MK-2206] | 4.8 | 10.4 | 3.4 | 6.8 | 13.3 | 3.7 | 1.8 | 0.5 | 0.7 | -3.1 | 14 | -2.3 | 15.8
21 | Cn1cc(-c2cnn3c(N)c(Br)c([C@@H]4CCCNC4)nc23)cn1 [MK-8776] | 6.8 | 7.1 | 1.8 | -2.9 | 8.5 | 4.4 | 4.7 | -1.8 | 1.1 | -1.5 | 8.9 | -6.8 | 6.3
22 | C=C(F)C(=O)N1CCN(c2nc(OC[C@@H]3CCCN3C)nc3c2CCN(c2cccc4cccc(Cl)c24)C3)C[C@@H]1CC#N [MRTX849] | 1.8 | 0.7 | 2 | 0.1 | 1.6 | 4.8 | -0.9 | -1.7 | 0.7 | 1.5 | 1.1 | 3.5 | -1.7
23 | N[C@@H](Cc1ccc(N(CCCl)CCCl)cc1)C(=O)O [Melphalan] | -1.3 | -1.7 | -1.7 | 4.3 | 2.7 | -1.7 | -1 | 3.5 | -1.7 | -1.7 | 7 | -1.7 | 4
24 | S=c1[nH]cnc2nc[nH]c12 [Mercaptopurine] | 7.4 | 12 | -0.4 | -4.2 | -1.6 | 3.8 | 0.9 | 2.9 | -1.8 | -1.3 | 0.3 | -5 | 4.9
25 | CN(Cc1cnc2nc(N)nc(N)c2n1)c1ccc(C(=O)N[C@@H](CCC(=O)O)C(=O)O)cc1 [Methotrexate] | 21.6 | -10.9 | -3.6 | -9.9 | -6.2 | 0 | 11.6 | 4.4 | -10.4 | -4.9 | -0.6 | -14 | -5.4
26 | CO[C@@H]1[C@H](N(C)C(=O)c2ccccc2)C[C@H]2O[C@]1(C)n1c3ccccc3c3c4c(c5c6ccccc6n2c5c31)C(=O)NC4 [Midostaurin] | 7.9 | 2.2 | -1.6 | -11 | 5.8 | -1.3 | 5.9 | 3.1 | 0.6 | -4.2 | 3.4 | -0.3 | 7.8
27 | O=C(NOC[C@H](O)CO)c1ccc(F)c(F)c1Nc1ccc(I)cc1F [Mirdametinib] | -3 | -3 | -3 | -3 | -1.9 | -3 | -3 | -3 | -2.9 | -3 | -3 | -3 | -3
28 | CO[C@@]12[C@H](COC(N)=O)C3=C(C(=O)C(C)=C(N)C3=O)N1C[C@@H]1N[C@@H]12 [Mitomycin] | 6.6 | 1.6 | 9.5 | 10.3 | 18.4 | -1.3 | 14.4 | 17.3 | -3.8 | -4.7 | 22.4 | 0.6 | 15.5
29 | O=C1c2c(O)ccc(O)c2C(=O)c2c(NCCNCCO)ccc(NCCNCCO)c21 [Mitoxantrone] | 10 | 9.1 | -1.8 | 5.1 | 9.8 | 5.1 | 10.9 | 14.7 | 0.4 | 3.5 | 21.8 | -2.1 | 11.9
30 | Nc1ccccc1NC(=O)c1ccc(CNc2nccc(-c3cccnc3)n2)cc1 [Mocetinostat] | 1.8 | 1.5 | 2.6 | 8.4 | 7.1 | -3.3 | 0.8 | 1.4 | -0.9 | -2.7 | 2.4 | -9 | 7.8
